Data reported in patent publication US20230017045A1, “PYRIDINE AND PYRIMIDINE CARBOXYLATE HERBICIDES AND METHODS OF USE THEREOF” (Dow AgroSciences LLC, priority 2017, published 2023).
Like-named read-outs stand apart in the source and are kept apart here.

Tested on: test plant species
Test: Post-emergent herbicidal activity test (greenhouse, foliar spray, visual growth reduction)
Type: in vivo
Conditions: post-emergence, 336 h, 140 g ai/ha
Method in brief: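 Visual percent injury (0-100) rated 14 d after treatment, relative to nontreated and solvent-blank plants. Test plants at first or second true leaf stage received an overhead track-sprayer application at 187 L/ha. Compounds were formulated in aqueous acetone/DMSO carrier containing crop oil concentrate and X-77 surfactant.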

[1] = ECHCG: barnyardgrass (Echinochloa crus-galli), 14 days after application, read-out: Visual Growth Reduction (%) 14 Days After Application, ECHCG
[2] = IPOHE: ivy-leaf morning glory (Ipomoea hederacea), 14 days after application, read-out: Visual Growth Reduction (%) 14 Days After Application, IPOHE
[3] = KCHSC: kochia (Bassia scoparia), 14 days after application, read-out: Visual Growth Reduction (%) 14 Days After Application, KCHSC
[4] = ORYSA: rice (Oryza sativa), 14 days after application, read-out: Visual Growth Reduction (%) 14 Days After Application, ORYSA
[5] = SETFA: giant foxtail (Setaria faberi), 14 days after application, read-out: Visual Growth Reduction (%) 14 Days After Application, SETFA
[6] = SORVU: grain sorghum (Sorghum vulgare), 14 days after application, read-out: Visual Growth Reduction (%) 14 Days After Application, SORVU
[7] = STEME: common chickweed (Stellaria media), 14 days after application, read-out: Visual Growth Reduction (%) 14 Days After Application, STEME
[8] = TRZAS: wheat, spring (Triticum aestivum), 14 days after application, read-out: Visual Growth Reduction (%) 14 Days After Application, TRZAS
[9] = blackgrass (Alopecurus myosuroides), 14 Days After Application, read-out: Visual Growth Reduction (%) ALOMY
[10] = canada thistle (Cirsium arvense), 14 Days After Application, read-out: Visual Growth Reduction (%) CIRAR
[11] = crabgrass (Digitaria sanguinalis), 14 Days After Application, read-out: Visual Growth Reduction (%) DIGSA
[12] = lambsquarters (Chenopodium album), 14 Days After Application, read-out: Visual Growth Reduction (%) CHEAL
[13] = redroot pigweed (Amaranthus retroflexus), 14 Days After Application, read-out: Visual Growth Reduction (%) AMARE
[14] = wild oat (Avena fatua), 14 Days After Application, read-out: Visual Growth Reduction (%) AVEFA
[15] = yellow nutsedge (Cyperus esculentus), 14 Days After Application, read-out: Visual Growth Reduction (%) CYPES

COC(=O)c1nc(-c2ccc(F)cc2Cl)ccc1Cl [F37, Methyl 3-chloro-6-(2-chloro-4-fluorophenyl) picolinate]
pest or weed control at 140 g/ha (ALOMY: blackgrass (Alopecurus myosuroides), 14 days after application, read-out: Visual Growth Reduction (%) 14 Days After Application, ALOMY): 0 to 29%
pest or weed control at 140 g/ha (AMARE: redroot pigweed (Amaranthus retroflexus), 14 days after application, read-out: Visual Growth Reduction (%) 14 Days After Application, AMARE): 85 to 94%
pest or weed control at 140 g/ha (AVEFA: wild oat (Avena fatua), 14 days after application, read-out: Visual Growth Reduction (%) 14 Days After Application, AVEFA): 0 to 29%
pest or weed control at 140 g/ha (CHEAL: lambsquarters (Chenopodium album), 14 days after application, read-out: Visual Growth Reduction (%) 14 Days After Application, CHEAL): 60 to 74%
pest or weed control at 140 g/ha (CIRAR: canada thistle (Cirsium arvense), 14 days after application, read-out: Visual Growth Reduction (%) 14 Days After Application, CIRAR): 0 to 29%
pest or weed control at 140 g/ha (CYPES: yellow nutsedge (Cyperus esculentus), 14 days after application, read-out: Visual Growth Reduction (%) 14 Days After Application, CYPES): 0 to 29%
pest or weed control at 140 g/ha (DIGSA: crabgrass (Digitaria sanguinalis), 14 days after application, read-out: Visual Growth Reduction (%) 14 Days After Application, DIGSA): 0 to 29%
pest or weed control at 140 g/ha [1]: 0 to 29%
pest or weed control at 140 g/ha [2]: 75 to 84%
pest or weed control at 140 g/ha [3]: 0 to 29%
pest or weed control at 140 g/ha [4]: 0 to 29%
pest or weed control at 140 g/ha [5]: 0 to 29%
pest or weed control at 140 g/ha [6]: 75 to 84%
pest or weed control at 140 g/ha [7]: 0 to 29%
pest or weed control at 140 g/ha [8]: 0 to 29%

COC(=O)c1nc(-c2cccc(OC(F)(F)F)c2F)ccc1Cl [F290, Methyl 3-chloro-6-(2-fluoro-3-(trifluoromethoxy)phenyl)picolinate]
pest or weed control at 140 g/ha [1]: 0 to 29%
pest or weed control at 140 g/ha [2]: 75 to 84%
pest or weed control at 140 g/ha [3]: 0 to 29%
pest or weed control at 140 g/ha [4]: 0 to 29%
pest or weed control at 140 g/ha [5]: 0 to 29%
pest or weed control at 140 g/ha [6]: 0 to 29%
pest or weed control at 140 g/ha [7]: 0 to 29%
pest or weed control at 140 g/ha [8]: 0 to 29%
pest or weed control at 140 g/ha [9]: 0 to 29%
pest or weed control at 140 g/ha [10]: 0 to 29%
pest or weed control at 140 g/ha [11]: 0 to 29%
pest or weed control at 140 g/ha [12]: 0 to 29%
pest or weed control at 140 g/ha [13]: 0 to 29%
pest or weed control at 140 g/ha [14]: 0 to 29%
pest or weed control at 140 g/ha [15]: 60 to 74%

COC(=O)c1nc(-c2ccc(I)cc2F)c(F)cc1Cl [F328, methyl 3-chloro-5-fluoro-6-(2-fluoro-4-iodophenyl)picolinate]
pest or weed control at 140 g/ha [1]: 0 to 29%
pest or weed control at 140 g/ha [2]: 85 to 94%
pest or weed control at 140 g/ha [3]: 0 to 29%
pest or weed control at 140 g/ha [4]: 0 to 29%
pest or weed control at 140 g/ha [5]: 30 to 44%
pest or weed control at 140 g/ha [6]: 75 to 84%
pest or weed control at 140 g/ha [7]: 0 to 29%
pest or weed control at 140 g/ha [8]: 0 to 29%
pest or weed control at 140 g/ha [9]: 0 to 29%
pest or weed control at 140 g/ha [10]: 0 to 29%
pest or weed control at 140 g/ha [11]: 75 to 84%
pest or weed control at 140 g/ha [12]: 0 to 29%
pest or weed control at 140 g/ha [13]: 30 to 44%
pest or weed control at 140 g/ha [14]: 0 to 29%
pest or weed control at 140 g/ha [15]: 0 to 29%

O=C(O)c1nc(-c2ccc(OC(F)(F)F)cc2Cl)ccc1Cl [F226, 3-Chloro-6-(2-chloro-4-4-(trifluoromethoxy)phenyl)picolinic acid]
pest or weed control at 140 g/ha [1]: 60 to 74%
pest or weed control at 140 g/ha [2]: 95 to 100%
pest or weed control at 140 g/ha [3]: 60 to 74%
pest or weed control at 140 g/ha [4]: 0 to 29%
pest or weed control at 140 g/ha [5]: 85 to 94%
pest or weed control at 140 g/ha [6]: 85 to 94%
pest or weed control at 140 g/ha [7]: 0 to 29%
pest or weed control at 140 g/ha [8]: 45 to 59%
pest or weed control at 140 g/ha [9]: 45 to 59%
pest or weed control at 140 g/ha [10]: 85 to 94%
pest or weed control at 140 g/ha [11]: 95 to 100%
pest or weed control at 140 g/ha [12]: 95 to 100%
pest or weed control at 140 g/ha [13]: 60 to 74%
pest or weed control at 140 g/ha [14]: 45 to 59%
pest or weed control at 140 g/ha [15]: 0 to 29%

COC(=O)c1nc(-c2ccc(C3(C#N)CC3)cc2Cl)c(Cl)cc1Cl [F238, Methyl 3,5-dichloro-6-(2-chloro-4-(1-cyanocyclopropyl)phenyl)picolinate]
pest or weed control at 140 g/ha [1]: 0 to 29%
pest or weed control at 140 g/ha [2]: 75 to 84%
pest or weed control at 140 g/ha [3]: 0 to 29%
pest or weed control at 140 g/ha [4]: 0 to 29%
pest or weed control at 140 g/ha [5]: 45 to 59%
pest or weed control at 140 g/ha [6]: 60 to 74%
pest or weed control at 140 g/ha [7]: 0 to 29%
pest or weed control at 140 g/ha [8]: 0 to 29%
pest or weed control at 140 g/ha [9]: 0 to 29%
pest or weed control at 140 g/ha [10]: 60 to 74%
pest or weed control at 140 g/ha [11]: 60 to 74%
pest or weed control at 140 g/ha [12]: 95 to 100%
pest or weed control at 140 g/ha [13]: 45 to 59%
pest or weed control at 140 g/ha [14]: 0 to 29%
pest or weed control at 140 g/ha [15]: 0 to 29%
